According to the NIST ThermoML archive (doi:10.1016/j.jct.2008.09.016):

Experiment: mn = molality of the nth substance listed, in mol/kg
Settings: 101 kPa, Liquid, Vibrating tube method

O=C([O-])Cc1ccccc1Nc1c(Cl)cccc1Cl.[Na+] [sodium diclofenac] + O
mass density [kg/m3]
Settings | m1 = 0.0075 | m1 = 0.0076 | m1 = 0.01 | m1 = 0.0125 | m1 = 0.0152 | m1 = 0.0175 | m1 = 0.02 | m1 = 0.025
293.15 K | – | 998.331 | 998.385 | 998.445 | 998.525 | 998.605 | 998.695 | 998.911
298.15 K | – | 997.159 | 997.215 | 997.261 | 997.325 | 997.405 | 997.505 | 997.691
303.15 K | – | 995.745 | 995.795 | 995.851 | 995.905 | 995.973 | 996.075 | 996.239
308.15 K | – | 994.125 | 994.175 | 994.221 | 994.294 | 994.351 | 994.436 | 994.595
310.15 K | – | 993.388 | 993.424 | 993.475 | 993.541 | 993.591 | 993.661 | 993.851
313.15 K | 992.285 | – | 992.325 | 992.375 | 992.428 | 992.481 | 992.545 | 992.725
